Experimental findings from PubChem BioAssay AID1259407 (Chemical Carcinogenesis Research Information System (CCRIS), 2018) are described below.

“Also recorded” adds a separate entry of the source. Active and inactive are the calls of the source. No rule for the calls is given here.

In this data set the test system is CCRIS mutagenicity, Ames/micronucleus/aberration tests. In words: CCRIS mutagenicity studies.
[1] abbreviates: Test System: AMES SALMONELLA TYPHIMURIUM, Strain/Indicator: TA98, Metabolic Activation: NONE, Method: PREINCUBATION
Where [2] appears, read: Test System: AMES SALMONELLA TYPHIMURIUM, Strain/Indicator: TA98, Metabolic Activation: NONE, Method: STANDARD PLATE.
[3] abbreviates: Test System: AMES SALMONELLA TYPHIMURIUM, Strain/Indicator: TA100, Metabolic Activation: NONE, Method: STANDARD PLATE.

As to `Cc1cnc2ccc3c(nc(N)n3C)c2n1`, the mutagenic call was “inactive; negative” (End Point: IN VIVO MICRONUCLEUS, Test System: BONE MARROW POLYCHROMATIC ERYTHROCYTES, Species: MOUSE, Strain/Sex: BALB/C/MALE, Route: IP INJECTION); “inactive; negative” (Test System: AMES SALMONELLA TYPHIMURIUM, Strain/Indicator: TA98, Metabolic Activation: CYNOMOLGUS MONKEY, LIVER, MICROSOMES, Method: PREINCUBATION); “active; positive” (Test System: AMES SALMONELLA TYPHIMURIUM, Strain/Indicator: TA98, Metabolic Activation: CYNOMOLOGUS MONKEY, LIVER, MICROSOMES, 2,3,7,8-TETRACHLORODIBENZO-P-DIOXIN, Method: PREINCUBATION); “active; positive” (Test System: AMES SALMONELLA TYPHIMURIUM, Strain/Indicator: TA98, Metabolic Activation: CYNOMOLOGUS MONKEY, LIVER, MICROSOMES, 2-AMINO-3-METHYLIMIDAZO[4,5-F]QUINOLINE, Method: PREINCUBATION); “inactive; negative” (Test System: AMES SALMONELLA TYPHIMURIUM, Strain/Indicator: TA98, Metabolic Activation: CYNOMOLOGUS MONKEY, LIVER, MICROSOMES, RIFAMPICIN, Method: PREINCUBATION); “active; positive” (Test System: AMES SALMONELLA TYPHIMURIUM, Strain/Indicator: TA98, Metabolic Activation: HUMAN, LIVER, MICROSOMES, Method: PREINCUBATION). For the same compound, the mutagenic call is, setting by setting: (Test System: AMES SALMONELLA TYPHIMURIUM, Strain/Indicator: TA98, Metabolic Activation: MONKEY, LIVER, MICROSOMES, Method: PREINCUBATION) “active; positive”; under setting [1], “inactive; negative”; (Test System: AMES SALMONELLA TYPHIMURIUM, Strain/Indicator: TA98, Metabolic Activation: PATAS MONKEY, LIVER, MICROSOMES, Method: PREINCUBATION) “active; positive”; (Test System: AMES SALMONELLA TYPHIMURIUM, Strain/Indicator: TA98, Metabolic Activation: RABBIT (6 TO 9 D OF AGE), LIVER, MICROSOMES, 3-METHYLCHOLANTHRENE, Method: PREINCUBATION) “inactive; negative”; (Test System: AMES SALMONELLA TYPHIMURIUM, Strain/Indicator: TA98, Metabolic Activation: RABBIT (6 TO 17 D OF AGE), LIVER, MICROSOMES, Method: PREINCUBATION) “inactive; negative”; (Test System: AMES SALMONELLA TYPHIMURIUM, Strain/Indicator: TA98, Metabolic Activation: RABBIT (9 D OF AGE TO ADULT), LIVER, MICROSOMES, 3-METHYLCHOLANTHRENE, Method: PREINCUBATION) “active; positive”. Also, the mutagenic call is “active; positive” (Test System: AMES SALMONELLA TYPHIMURIUM, Strain/Indicator: TA98, Metabolic Activation: RABBIT (17 D OF AGE TO ADULT), LIVER, MICROSOMES, Method: PREINCUBATION); “active; positive” (Test System: AMES SALMONELLA TYPHIMURIUM, Strain/Indicator: TA98, Metabolic Activation: RAT, LIVER, MICROSOMES, Method: PREINCUBATION); “active; positive” (Test System: AMES SALMONELLA TYPHIMURIUM, Strain/Indicator: TA98, Metabolic Activation: RAT, LIVER, S-9, AROCLOR 1254, Method: PREINCUBATION); “active; positive” (Test System: AMES SALMONELLA TYPHIMURIUM, Strain/Indicator: TA98, Metabolic Activation: RAT, LIVER, S-9, AROCLOR 1254, Method: STANDARD PLATE); “inactive; negative” (Test System: AMES SALMONELLA TYPHIMURIUM, Strain/Indicator: TA100, Metabolic Activation: NONE, Method: PREINCUBATION); “active; positive” (Test System: AMES SALMONELLA TYPHIMURIUM, Strain/Indicator: TA100, Metabolic Activation: RAT, LIVER, S-9, AROCLOR 1254, Method: PREINCUBATION). The mutagenic call (Test System: AMES SALMONELLA TYPHIMURIUM, Strain/Indicator: YG1019, Metabolic Activation: RAT LIVER S-9, AROCLOR, Method: PREINCUBATION) is “active; positive”; the mutagenic call (Test System: CHINESE HAMSTER V-79, Strain/Indicator: V-79/6-THIOGUANINE, Metabolic Activation: RAT, LIVER, S-9, AROCLOR 1254) was “inactive; negative”; the mutagenic call (Test System: UDS HAMSTER HEPATOCYTES, Strain/Indicator: THY INCORP, Metabolic Activation: NONE, Method: LIQUID SCINTILLATION COUNTING) is “active; positive”; the mutagenic call (Test System: UDS HUMAN HEPATOCYTES, Strain/Indicator: THY INCORP, Metabolic Activation: NONE, Method: AUTORADIOGRAPHY) was “active; positive”; the mutagenic call (Test System: UDS MOUSE HEPATOCYTES, Strain/Indicator: THY INCORP, Metabolic Activation: NONE, Method: AUTORADIOGRAPHY) was “inactive; negative”; the mutagenic call (Test System: UDS RAT HEPATOCYTES, Strain/Indicator: THY INCORP, Metabolic Activation: NONE, Method: AUTORADIOGRAPHY) is “inactive; negative”. Further, the mutagenic call (Test System: UDS RAT HEPATOCYTES, Strain/Indicator: THY INCORP, Metabolic Activation: NONE, Method: LIQUID SCINTILLATION COUNTING) is “inactive; negative”.
As to `Clc1ccc(C(Cl)c2ccccn2)cc1` (centres undefined), the mutagenic call runs as follows: (End Point: IN VITRO CHROMOSOMAL ABERRATIONS, Test System: CHL CELLS, Metabolic Activation: NONE) “inactive; negative; test chemical precipitated at 0.2 mg/ml; toxic at 0.3 mg/ml (metaphase; also recorded: active; positive (structural changes); 0.30 mg/ml was toxic; metaphase cell division not”; (End Point: IN VITRO CHROMOSOMAL ABERRATIONS, Test System: CHL CELLS, Metabolic Activation: RAT, LIVER, S-9, SODIUM PHENOBARBITAL AND 5,6-BENZOFLAVONE) “active; positive (structural changes); test chemical precipitated at 2 highest of 4 dose”.
As for `Cc1ccc2cc3c4c(ccc3c3c2c1CC3)C(O)C(O)C=C4` (centres undefined), the mutagenic call (Test System: CHINESE HAMSTER V-79, Strain/Indicator: V-79/8-AZAGUANINE, Metabolic Activation: NONE, Method: STANDARD PLATE) is “active; positive”.
For the compound `Cc1cc2nc3ccc(C)c(N)c3nc2cc1N`, the mutagenic call is, setting by setting: under setting [1], “inactive; negative”; (Test System: AMES SALMONELLA TYPHIMURIUM, Strain/Indicator: TA98, Metabolic Activation: RAT, LIVER, S-9, PCB, Method: PREINCUBATION) “active; positive”.
`COc1ccccc1NC(=O)C(N=Nc1ccc(-c2ccc(N=NC(C(C)=O)C(=O)Nc3ccccc3OC)c(Cl)c2)cc1Cl)C(C)=O` (centres undefined): the mutagenic call (Test System: AMES SALMONELLA TYPHIMURIUM, Strain/Indicator: TA98, Metabolic Activation: HAMSTER, LIVER, S-9, Method: PREINCUBATION (PRIVAL METHOD)) was “inactive; negative”.
For the compound `OC[C@H]1O[C@@H](n2cnc3c(=S)nc[nH]c32)[C@H](O)[C@@H]1O`, the mutagenic call is, setting by setting: under setting [2], “inactive; negative”; under setting [3], “active; positive”; (Test System: AMES SALMONELLA TYPHIMURIUM, Strain/Indicator: TA102, Metabolic Activation: NONE, Method: STANDARD PLATE) “inactive; negative”; (Test System: AMES SALMONELLA TYPHIMURIUM, Strain/Indicator: TA1537, Metabolic Activation: NONE, Method: STANDARD PLATE) “inactive; negative”; (Test System: E. COLI, Strain/Indicator: WP2 (HCR), Metabolic Activation: NONE, Method: STANDARD PLATE) “inactive; negative”.
In the case of `BrCc1ccc2cccc3c2c1-c1ccccc1-3`, the mutagenic call runs as follows: under setting [2], “active; positive”; under setting [3], “active; positive”.
Regarding `C=CCCCCCCCCCCC`, the mutagenic call is, setting by setting: (Test System: AMES SALMONELLA TYPHIMURIUM, Strain/Indicator: TA98, Metabolic Activation: MOUSE, LIVER, S-9, Method: STANDARD PLATE) “inactive; negative”; under setting [2], “inactive; negative”; (Test System: AMES SALMONELLA TYPHIMURIUM, Strain/Indicator: TA100, Metabolic Activation: MOUSE, LIVER, S-9, Method: STANDARD PLATE) “inactive; negative”; under setting [3], “inactive; negative”; (Test System: AMES SALMONELLA TYPHIMURIUM, Strain/Indicator: TA1535, Metabolic Activation: NONE, Method: STANDARD PLATE) “inactive; negative”; (Test System: AMES SALMONELLA TYPHIMURIUM, Strain/Indicator: TA1538, Metabolic Activation: NONE, Method: STANDARD PLATE) “inactive; negative”.
